Laboratory results published in article PMC6150173, “Tryptophan-Containing Cyclic Decapeptides with Activity against Plant Pathogenic Bacteria” (Molecules : A Journal of Synthetic Chemistry and Natural …, 2017).
Peptide text beside a SMILES is read from it.

Tests used:
Type in all cases: cell-based
[1] = tested on: Erwinia amylovora PMV6076; experiment: Antibacterial activity (MIC), in vitro growth inhibition; conditions: Table S1, MIC range
Protocol: (§1) Erwinia amylovora PMV6076 (Institut National de la Recherche Agronomique, Angers, France), Pseudomonas syringae pv. syringae EPS94 (Institut de Tecnologia Agroalimentària, Universitat de Girona, Spain), and Xanthomonas axonopodis pv. vesicatoria 2133-2 (Instituto Valenciano de Investigaciones Agrarias, Valencia, Spain) were used as bacterial strains. They were stored and cultivated as previously described.
(§2) The minimum inhibitory concentration (MIC) was analyzed as previously described at 0.8, 1.6, 3.1, 6.2, 12.5, 25 and 50 μM [20].

[2] = tested on: Pseudomonas syringae pv. syringae EPS94; experiment: as above; conditions: Table S1, MIC range
Protocol: as §1, §2

[3] = tested on: Xanthomonas axonopodis pv. vesicatoria 2133-2; conditions: Table S1, MIC range
Protocol: as §1, §2

[4] = tested on: erythrocyte suspensions of human blood; experiment: Hemolytic activity, hemoglobin release; conditions: human blood erythrocytes 5% v/v, absorbance 540 nm, percentage compared to melittin, three replicates; for Hemolysis (%) at 50 µM: peptide 50 μM (table prints 50 µM); for Hemolysis (%) at 125 µM: peptide 125 μM (table prints 125 µM)
Protocol: The hemolytic activity of the compounds was evaluated at 50 and 125 μM by determining hemoglobin release from erythrocyte suspensions of human blood (5% v/v) (Oxoid) using absorbance at 540 nm, as previously described. Three replicates for each peptide concentration were used.

SMILES | MIC Ea [1] | MIC Pss [2] | MIC Xav [3] | Hemolysis (%) at 50 µM [4] | Hemolysis (%) at 125 µM [4]
CC(C)C[C@@H]1NC(=O)[C@H](CCCCN)NC(=O)[C@H](CC(C)C)NC(=O)[C@H](Cc2c[nH]c3ccccc23)NC(=O)[C@H](CC(C)C)NC(=O)[C@H](CCCCN)NC(=O)[C@H](CCCCN)NC(=O)[C@H](CCCCN)NC(=O)[C@H](CCCCN)NC(=O)[C@H](CCC(N)=O)NC1=O [BPC070W, c(KKKKLWLKLQ)] (cyclo(KKKKLWLKLQ)) | 12.5 to 25 µM | 6.2 to 12.5 µM | 1.6 to 3.1 µM | 6% | 9%
CC(C)C[C@@H]1NC(=O)[C@H](CCCCN)NC(=O)[C@H](CC(C)C)NC(=O)[C@H](Cc2c[nH]c3ccccc23)NC(=O)[C@H](CCCCN)NC(=O)[C@H](CC(C)C)NC(=O)[C@H](CCCCN)NC(=O)[C@H](CCCCN)NC(=O)[C@H](CCCCN)NC(=O)[C@H](CCC(N)=O)NC1=O [BPC072W, c(KKKLKWLKLQ)] (cyclo(KKKLKWLKLQ)) | 12.5 to 25 µM | 3.1 to 6.2 µM | 1.6 to 3.1 µM | 7% | 9% and below 20%
CC(C)C[C@@H]1NC(=O)[C@H](CCCCN)NC(=O)[C@H](CCCCN)NC(=O)[C@H](CCC(N)=O)NC(=O)[C@H](CC(C)C)NC(=O)[C@H](CCCCN)NC(=O)[C@H](CC(C)C)NC(=O)[C@H](Cc2c[nH]c3ccccc23)NC(=O)[C@H](CCCCN)NC(=O)[C@H](CCCCN)NC1=O [BPC074W, c(KKLKKWLKLQ)] (cyclo(KKLKKWLKLQ)) | 12.5 to 25 µM | 6.2 to 12.5 µM | 1.6 to 3.1 µM | 39% | 50%
CC(C)C[C@@H]1NC(=O)[C@H](CCCCN)NC(=O)[C@H](CCC(N)=O)NC(=O)[C@H](CC(C)C)NC(=O)[C@H](CCCCN)NC(=O)[C@H](CC(C)C)NC(=O)[C@H](Cc2c[nH]c3ccccc23)NC(=O)[C@H](CCCCN)NC(=O)[C@H](CCCCN)NC(=O)[C@H](CCCCN)NC1=O [BPC076W, c(KLKKKWLKLQ)] (cyclo(KKKWLKLQKL)) | 6.2 to 12.5 µM | 6.2 to 12.5 µM | 1.6 to 3.1 µM | 15% | 21%
CC(C)C[C@@H]1NC(=O)[C@H](CCC(N)=O)NC(=O)[C@H](CC(C)C)NC(=O)[C@H](CCCCN)NC(=O)[C@H](CC(C)C)NC(=O)[C@H](Cc2c[nH]c3ccccc23)NC(=O)[C@H](CCCCN)NC(=O)[C@H](CCCCN)NC(=O)[C@H](CCCCN)NC(=O)[C@H](CCCCN)NC1=O [BPC078W, c(LKKKKWLKLQ)] (cyclo(KKKKWLKLQL)) | 25 to 50 µM | 6.2 to 12.5 µM | 0.8 to 1.6 µM | 3% | 6%
CC(C)C[C@@H]1NC(=O)[C@H](CCCCN)NC(=O)[C@H](CCCCN)NC(=O)[C@H](Cc2c[nH]c3ccccc23)NC(=O)[C@H](CC(C)C)NC(=O)[C@H](CC(C)C)NC(=O)[C@H](CCCCN)NC(=O)[C@H](CCCCN)NC(=O)[C@H](CCCCN)NC(=O)[C@H](CCC(N)=O)NC1=O [BPC080W, c(KKKLLWKKLQ)] (cyclo(KKKLLWKKLQ)) | 12.5 to 25 µM | 6.2 to 12.5 µM | 0.8 to 1.6 µM | 3% | 4%
CC(C)C[C@@H]1NC(=O)[C@H](CCCCN)NC(=O)[C@H](CCCCN)NC(=O)[C@H](Cc2c[nH]c3ccccc23)NC(=O)[C@H](CC(C)C)NC(=O)[C@H](CCCCN)NC(=O)[C@H](CC(C)C)NC(=O)[C@H](CCCCN)NC(=O)[C@H](CCCCN)NC(=O)[C@H](CCC(N)=O)NC1=O [BPC082W, c(KKLKLWKKLQ)] (cyclo(KKLKLWKKLQ)) | 12.5 to 25 µM | 6.2 to 12.5 µM | 1.6 to 3.1 µM | 26% | 34%
